The values below come from PubChem BioAssay (NCI).

Several values for one entry are separate records, joined by “and”; a condition that tells them apart may be missing. Equal values may be shown once.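 How tested: cells in 96-well plates exposed to compound for 48 hours at five concentrations. At the GI50, growth is halved. TGI is the concentration that stops growth completely.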 Bounds are passed on as bounds.

For the first assay, the system named is NCI-H522 lung. As to the kind of experiment: inhibition of tumour cell growth, NCI panel, 48 h.
Turning to `CC[C@@]1(O)C[C@H](OC2CC(N(C)C)C(O)C(C)O2)c2c(O)c3c(c(O)c2[C@H]1OC1CC(N(C)C)C(O)C(C)O1)C(=O)c1cccc(O)c1C3=O` (stereo not given in full), the GI50 was < 0.01 µM; the TGI is 0.0857 µM and < 0.01 µM.

`CC1(C)CCc2c(c3c(c4c(=O)c(O)c(-c5ccc(O)cc5)oc24)OC(C)(C)CC3)O1`: the GI50 was > 100 µM and the TGI was > 100 µM.

`CC(C)=CC(=O)C1c2cccc(O)c2C(=O)c2c(O)cc(C)cc21` (stereo not given) showed a TGI of 3.85 µM.

Regarding `O=C(Nc1ccccc1)NS(=O)(=O)c1ccc(-n2nc3c(c2-c2cccs2)Cc2ccccc2-3)cc1`, the GI50 was 31.5 µM and the TGI is > 100 µM.

`CCCCCN(CCCCC)CC(O)c1cc(C)c2ccc3cc(C(C)C)ccc3c2c1` (stereo not given): the GI50 is 1.81 µM and the TGI came to 3.85 µM.

For the molecule `COC(=O)CC1CCN(C#N)CC1CC[N+](=O)[O-]` (stereo not given), the TGI was > 100 µM.

For the molecule `CC(C)CCC[C@@H](C)[C@H]1CC[C@H]2[C@@H]3CC=C4C[C@@H](C(C(=O)O)C(=O)O)CC[C@]4(C)[C@H]3CC[C@]12C`, the GI50 was 0.153 µM and the TGI amounted to 0.527 µM.

With `COc1ccc(-c2nc3sccn3c2/C(N)=N/C(=N)N)cc1OC`, the GI50 is 7.85 µM and the TGI is > 100 µM.

`CC1=C(C(=O)Nc2ccc(Cl)c(Cl)c2)C(c2cccc(Oc3ccccc3)c2)NC(=S)N1` (stereo not given): the GI50 is 11.7 µM and the TGI came out at 21.8 µM.

The molecule `Nc1ccccc1SC(C[N+](=O)[O-])c1ccc2c(c1)OCO2` (stereo not given) displayed a TGI of 28.3 µM.

For the molecule `Cc1nc2ccccc2c(=O)n1-c1ccccc1I`, the TGI is > 100 µM.

The next assay deals with SK-MEL-2 melanoma. Kind of assay: inhibition of tumour cell growth, NCI panel, 48 h.
As for `CCOC(=O)[C@]1(OC(C)=O)C[C@H](OC(C)=O)[C@@H](C(F)COP(=O)(OCc2ccccc2)OCc2ccccc2)O1` (stereo not given in full), the GI50 is 25 µM and > 100 µM; the TGI is 78.4 µM and > 100 µM.

Consider `O=C(O)c1ccccc1[Se][Se]c1ccccc1C(=O)O`, for which the TGI is > 100 µM.

Consider `CC[C@@]1(O)C[C@H](OC2CC(N(C)C)C(O)C(C)O2)c2c(O)c3c(c(O)c2[C@H]1OC1CC(N(C)C)C(O)C(C)O1)C(=O)c1cccc(O)c1C3=O` (stereo not given in full), for which the GI50 is < 0.01 µM; the TGI is 0.0568 µM and < 0.01 µM.

`CC1(C)CCc2c(c3c(c4c(=O)c(O)c(-c5ccc(O)cc5)oc24)OC(C)(C)CC3)O1`: the GI50 is 67.2 µM and the TGI is > 100 µM.

`CC(C)=CC(=O)C1c2cccc(O)c2C(=O)c2c(O)cc(C)cc21` (stereo not given) came in with a TGI of 3.6 µM.

Regarding `O=C(Nc1ccccc1)NS(=O)(=O)c1ccc(-n2nc3c(c2-c2cccs2)Cc2ccccc2-3)cc1`, the GI50 is 70.1 µM and the TGI is > 100 µM.

For `CCCCCN(CCCCC)CC(O)c1cc(C)c2ccc3cc(C(C)C)ccc3c2c1` (stereo not given), the GI50 is 2.2 µM and the TGI amounted to 4.83 µM.

Consider `COC(=O)CC1CCN(C#N)CC1CC[N+](=O)[O-]` (stereo not given), for which the TGI was > 100 µM.

`CC(C)CCC[C@@H](C)[C@H]1CC[C@H]2[C@@H]3CC=C4C[C@@H](C(C(=O)O)C(=O)O)CC[C@]4(C)[C@H]3CC[C@]12C`: the GI50 was 0.224 µM and the TGI came to 0.613 µM.

In the case of `COc1ccc(-c2nc3sccn3c2/C(N)=N/C(=N)N)cc1OC`, the GI50 was 29.4 µM and the TGI was > 100 µM.

Turning to `CC1=C(C(=O)Nc2ccc(Cl)c(Cl)c2)C(c2cccc(Oc3ccccc3)c2)NC(=S)N1` (stereo not given), the GI50 was 9.38 µM and the TGI amounted to 18.9 µM.

`Nc1ccccc1SC(C[N+](=O)[O-])c1ccc2c(c1)OCO2` (stereo not given) returned a TGI of 27.7 µM.

For the molecule `Cc1nc2ccccc2c(=O)n1-c1ccccc1I`, the TGI was > 100 µM.

The test system of the next assay is SK-OV-3 ovarian. As to the kind of experiment: inhibition of tumour cell growth, NCI panel, 48 h.
As for `CCOC(=O)[C@]1(OC(C)=O)C[C@H](OC(C)=O)[C@@H](C(F)COP(=O)(OCc2ccccc2)OCc2ccccc2)O1` (stereo not given in full), the TGI is > 100 µM.

For the molecule `O=C(O)c1ccccc1[Se][Se]c1ccccc1C(=O)O`, the TGI was > 100 µM.

Regarding `CC[C@@]1(O)C[C@H](OC2CC(N(C)C)C(O)C(C)O2)c2c(O)c3c(c(O)c2[C@H]1OC1CC(N(C)C)C(O)C(C)O1)C(=O)c1cccc(O)c1C3=O` (stereo not given in full), the GI50 is < 0.01 µM; the TGI is 0.375 µM and 0.0643 µM.

As to `CC1(C)CCc2c(c3c(c4c(=O)c(O)c(-c5ccc(O)cc5)oc24)OC(C)(C)CC3)O1`, the GI50 is 23.2 µM and the TGI was found to be 53.4 µM.

`CC(C)=CC(=O)C1c2cccc(O)c2C(=O)c2c(O)cc(C)cc21` (stereo not given): the TGI was 8.48 µM.

As for `O=C(Nc1ccccc1)NS(=O)(=O)c1ccc(-n2nc3c(c2-c2cccs2)Cc2ccccc2-3)cc1`, the GI50 is 60.8 µM and the TGI was > 100 µM.

`CCCCCN(CCCCC)CC(O)c1cc(C)c2ccc3cc(C(C)C)ccc3c2c1` (stereo not given): the GI50 was 1.72 µM and the TGI came to 3.46 µM.

Turning to `COC(=O)CC1CCN(C#N)CC1CC[N+](=O)[O-]` (stereo not given), the TGI was > 100 µM.

Regarding `CC(C)CCC[C@@H](C)[C@H]1CC[C@H]2[C@@H]3CC=C4C[C@@H](C(C(=O)O)C(=O)O)CC[C@]4(C)[C@H]3CC[C@]12C`, the GI50 was 0.298 µM and the TGI was 3.15 µM.

With `COc1ccc(-c2nc3sccn3c2/C(N)=N/C(=N)N)cc1OC`, the GI50 was > 100 µM and the TGI was > 100 µM.

Take `CC1=C(C(=O)Nc2ccc(Cl)c(Cl)c2)C(c2cccc(Oc3ccccc3)c2)NC(=S)N1` (stereo not given): the GI50 was 8.1 µM and the TGI came out at 16.3 µM.

In turn, `Nc1ccccc1SC(C[N+](=O)[O-])c1ccc2c(c1)OCO2` (stereo not given) returned a TGI of 15.9 µM.

Regarding `Cc1nc2ccccc2c(=O)n1-c1ccccc1I`, the TGI was > 100 µM.

The next assay has as its system SNB-19 CNS. Kind of assay: inhibition of tumour cell growth, NCI panel, 48 h.
Take `CCOC(=O)[C@]1(OC(C)=O)C[C@H](OC(C)=O)[C@@H](C(F)COP(=O)(OCc2ccccc2)OCc2ccccc2)O1` (stereo not given in full): the GI50 was 32.9 µM and > 100 µM; the TGI is > 100 µM.

In turn, `O=C(O)c1ccccc1[Se][Se]c1ccccc1C(=O)O` displayed a TGI of 45 µM.

`CC[C@@]1(O)C[C@H](OC2CC(N(C)C)C(O)C(C)O2)c2c(O)c3c(c(O)c2[C@H]1OC1CC(N(C)C)C(O)C(C)O1)C(=O)c1cccc(O)c1C3=O` (stereo not given in full): the GI50 was < 0.01 µM and the TGI amounted to 11.1 µM.

With `CC1(C)CCc2c(c3c(c4c(=O)c(O)c(-c5ccc(O)cc5)oc24)OC(C)(C)CC3)O1`, the GI50 was 33.6 µM and the TGI was > 100 µM.

The molecule `CC(C)=CC(=O)C1c2cccc(O)c2C(=O)c2c(O)cc(C)cc21` (stereo not given) had a TGI of 16.3 µM.

`O=C(Nc1ccccc1)NS(=O)(=O)c1ccc(-n2nc3c(c2-c2cccs2)Cc2ccccc2-3)cc1`: the GI50 was > 100 µM and the TGI is > 100 µM.

In the case of `CCCCCN(CCCCC)CC(O)c1cc(C)c2ccc3cc(C(C)C)ccc3c2c1` (stereo not given), the GI50 is 1.88 µM and the TGI is 3.73 µM.

In the case of `COC(=O)CC1CCN(C#N)CC1CC[N+](=O)[O-]` (stereo not given), the TGI was > 100 µM.

As for `CC(C)CCC[C@@H](C)[C@H]1CC[C@H]2[C@@H]3CC=C4C[C@@H](C(C(=O)O)C(=O)O)CC[C@]4(C)[C@H]3CC[C@]12C`, the GI50 is 0.237 µM and the TGI came out at 8.91 µM.

In the case of `COc1ccc(-c2nc3sccn3c2/C(N)=N/C(=N)N)cc1OC`, the GI50 is 35.3 µM and the TGI was > 100 µM.

Consider `CC1=C(C(=O)Nc2ccc(Cl)c(Cl)c2)C(c2cccc(Oc3ccccc3)c2)NC(=S)N1` (stereo not given), for which the GI50 was 7.07 µM and the TGI was found to be 14.1 µM.

As to `Nc1ccccc1SC(C[N+](=O)[O-])c1ccc2c(c1)OCO2` (stereo not given), the TGI stood at 24.3 µM.

As for `Cc1nc2ccccc2c(=O)n1-c1ccccc1I`, the TGI is > 100 µM.

Another assay relates to TK-10 renal. As to the kind of experiment: inhibition of tumour cell growth, NCI panel, 48 h.
As to `CCOC(=O)[C@]1(OC(C)=O)C[C@H](OC(C)=O)[C@@H](C(F)COP(=O)(OCc2ccccc2)OCc2ccccc2)O1` (stereo not given in full), the GI50 is 18.8 µM and > 100 µM; the TGI was 35.7 µM and > 100 µM.

On to `O=C(O)c1ccccc1[Se][Se]c1ccccc1C(=O)O`, for which the TGI was > 100 µM.

As for `CC[C@@]1(O)C[C@H](OC2CC(N(C)C)C(O)C(C)O2)c2c(O)c3c(c(O)c2[C@H]1OC1CC(N(C)C)C(O)C(C)O1)C(=O)c1cccc(O)c1C3=O` (stereo not given in full), the GI50 was < 0.01 µM.

Consider `CC1(C)CCc2c(c3c(c4c(=O)c(O)c(-c5ccc(O)cc5)oc24)OC(C)(C)CC3)O1`, for which the GI50 was 36.6 µM and the TGI was > 100 µM.

`CC(C)=CC(=O)C1c2cccc(O)c2C(=O)c2c(O)cc(C)cc21` (stereo not given) returned a TGI of 7.83 µM.

Regarding `O=C(Nc1ccccc1)NS(=O)(=O)c1ccc(-n2nc3c(c2-c2cccs2)Cc2ccccc2-3)cc1`, the GI50 was 4.99 µM and the TGI turned out to be 30.8 µM.

For `CCCCCN(CCCCC)CC(O)c1cc(C)c2ccc3cc(C(C)C)ccc3c2c1` (stereo not given), the GI50 was 1.89 µM and the TGI turned out to be 3.51 µM.

As to `COC(=O)CC1CCN(C#N)CC1CC[N+](=O)[O-]` (stereo not given), the TGI was > 100 µM.

For the molecule `CC(C)CCC[C@@H](C)[C@H]1CC[C@H]2[C@@H]3CC=C4C[C@@H](C(C(=O)O)C(=O)O)CC[C@]4(C)[C@H]3CC[C@]12C`, the GI50 was 0.165 µM and the TGI came to 0.632 µM.

As for `COc1ccc(-c2nc3sccn3c2/C(N)=N/C(=N)N)cc1OC`, the GI50 is 28.6 µM and the TGI is > 100 µM.

Consider `CC1=C(C(=O)Nc2ccc(Cl)c(Cl)c2)C(c2cccc(Oc3ccccc3)c2)NC(=S)N1` (stereo not given), for which the GI50 is 11.3 µM and the TGI turned out to be 19.7 µM.

For the molecule `Nc1ccccc1SC(C[N+](=O)[O-])c1ccc2c(c1)OCO2` (stereo not given), the TGI was 7.09 µM.

Consider `Cc1nc2ccccc2c(=O)n1-c1ccccc1I`, for which the TGI was > 100 µM.
